PubChem BioAssay (NCI)
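Briefly, cells in 96-well plates were exposed to five compound concentrations for 48 h, and endpoints were estimated by linear interpolation. TGI marks complete inhibition of growth.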

How the values were obtained:
Experiment in all cases: inhibition of tumour cell growth, NCI panel, 48 h
HT29 colon = system: HT29 colon
K-562 leukemia = system: K-562 leukemia
LOX IMVI melanoma = system: LOX IMVI melanoma
M14 melanoma = system: M14 melanoma
MALME-3M melanoma = system: MALME-3M melanoma
MDA-N = system: MDA-N
NCI-H23 lung = system: NCI-H23 lung
NCI-H460 lung = system: NCI-H460 lung
OVCAR-4 ovarian = system: OVCAR-4 ovarian
OVCAR-5 ovarian = system: OVCAR-5 ovarian
TK-10 renal = system: TK-10 renal
UO-31 renal = system: UO-31 renal

## COC(=O)c1ccccc1CC1Cc2ccc3c(c2C1=O)CCCC3 (stereo unspecified)
HT29 colon
  TGI: > 100 µM
K-562 leukemia
  TGI: > 100 µM
LOX IMVI melanoma
  TGI: > 87 µM
M14 melanoma
  TGI: > 100 µM
MALME-3M melanoma
  TGI: > 82.5 µM
MDA-N
  TGI: > 100 µM
NCI-H23 lung
  TGI: > 100 µM
NCI-H460 lung
  TGI: > 100 µM
OVCAR-4 ovarian
  TGI: > 79.4 µM
OVCAR-5 ovarian
  TGI: > 100 µM
TK-10 renal
  TGI: > 100 µM
UO-31 renal
  TGI: > 100 µM

## C=CC1(C)CCC2C(=CCC3C2(C)CC(O)C(O)C3(C)COC2OC(C(=O)O)C(O)C(O)C2O)C1 (stereo unspecified) (tested in a mixture with another compound)
HT29 colon
  TGI: > 100 µM
K-562 leukemia
  TGI: > 100 µM
LOX IMVI melanoma
  TGI: > 100 µM
M14 melanoma
  TGI: > 100 µM
MALME-3M melanoma
  TGI: > 100 µM
MDA-N
  TGI: > 100 µM
NCI-H23 lung
  TGI: > 100 µM
NCI-H460 lung
  TGI: > 100 µM
OVCAR-4 ovarian
  TGI: > 100 µM
OVCAR-5 ovarian
  TGI: > 100 µM
TK-10 renal
  TGI: > 100 µM
UO-31 renal
  TGI: > 100 µM

## CC(C)=CCc1c2c(c3occ(-c4ccc(O)cc4)c(=O)c3c1O)CC(C(C)(C)O)O2 (stereo unspecified)
HT29 colon
  TGI: 25.8 µM
K-562 leukemia
  TGI: 42.1 µM
LOX IMVI melanoma
  TGI: 30.4 µM
M14 melanoma
  TGI: 28.2 µM
MALME-3M melanoma
  TGI: 36.3 µM
MDA-N
  TGI: 49.1 µM
NCI-H23 lung
  TGI: 36 µM
NCI-H460 lung
  TGI: 26 µM
OVCAR-4 ovarian
  TGI: 28.8 µM
OVCAR-5 ovarian
  TGI: 33.8 µM
TK-10 renal
  TGI: 30.1 µM
UO-31 renal
  TGI: 22.2 µM

## ClCCN1CCC2(CC1)SSC1(CCN(CCCl)CC1)S2
HT29 colon
  TGI: > 100 µM
K-562 leukemia
  TGI: > 100 µM
LOX IMVI melanoma
  TGI: > 100 µM
M14 melanoma
  TGI: > 100 µM
MALME-3M melanoma
  TGI: 73.6 µM
MDA-N
  TGI: > 100 µM
NCI-H23 lung
  TGI: > 100 µM
NCI-H460 lung
  TGI: > 100 µM
OVCAR-4 ovarian
  TGI: > 100 µM
OVCAR-5 ovarian
  TGI: 72 µM
TK-10 renal
  TGI: 95.5 µM
UO-31 renal
  TGI: > 100 µM

## NC(N)=N/N=C/c1c(-c2ccc(N)cc2)nc2sccn12
HT29 colon
  TGI: 56.8 µM
K-562 leukemia
  TGI: 66.1 µM
LOX IMVI melanoma
  TGI: > 100 µM
M14 melanoma
  TGI: 57.9 µM
MALME-3M melanoma
  TGI: > 100 µM
MDA-N
  TGI: 60.1 µM
NCI-H23 lung
  TGI: 95.2 µM
NCI-H460 lung
  TGI: 76.8 µM
OVCAR-4 ovarian
  TGI: > 100 µM
OVCAR-5 ovarian
  TGI: 46.8 µM
TK-10 renal
  TGI: 40.9 µM
UO-31 renal
  TGI: 39.2 µM

## COc1cc2nc3n(c(=O)c2cc1OC)-c1ccc([N+](=O)[O-])cc1C3=O
HT29 colon
  TGI: > 100 µM
K-562 leukemia
  TGI: > 100 µM
LOX IMVI melanoma
  TGI: > 100 µM
M14 melanoma
  TGI: > 100 µM
MALME-3M melanoma
  TGI: > 100 µM
MDA-N
  TGI: > 100 µM
NCI-H23 lung
  TGI: > 100 µM
NCI-H460 lung
  TGI: > 100 µM
OVCAR-4 ovarian
  TGI: 63.9 µM
OVCAR-5 ovarian
  TGI: > 100 µM
TK-10 renal
  TGI: > 100 µM
UO-31 renal
  TGI: 35 µM

## CC[C@@H]1CC[C@@H]2[C@H](CC[C@]3(C)[C@@H](OC(C)=O)CC[C@@H]23)[C@H]1COC(C)=O
HT29 colon
  TGI: 39.5 µM
K-562 leukemia
  TGI: 36.2 µM
LOX IMVI melanoma
  TGI: 31.5 µM
M14 melanoma
  TGI: 76.6 µM
MALME-3M melanoma
  TGI: 35.8 µM
MDA-N
  TGI: 62.2 µM
NCI-H23 lung
  TGI: 79.1 µM
NCI-H460 lung
  TGI: 45.9 µM
OVCAR-4 ovarian
  TGI: 75 µM
OVCAR-5 ovarian
  TGI: 73.8 µM
TK-10 renal
  TGI: > 100 µM
UO-31 renal
  TGI: > 100 µM

## Cc1ccc([N+](=O)[O-])cc1NC1=NCCO1
HT29 colon
  TGI: > 100 µM
K-562 leukemia
  TGI: > 100 µM
LOX IMVI melanoma
  TGI: > 100 µM
M14 melanoma
  TGI: > 100 µM
MALME-3M melanoma
  TGI: > 100 µM
MDA-N
  TGI: > 100 µM
NCI-H23 lung
  TGI: > 100 µM
NCI-H460 lung
  TGI: > 100 µM
OVCAR-4 ovarian
  TGI: > 100 µM
OVCAR-5 ovarian
  TGI: > 100 µM
TK-10 renal
  TGI: > 100 µM
UO-31 renal
  TGI: > 100 µM

## CC1(C)N=[N+]([O-])C1(C)C
HT29 colon
  TGI: > 100 µM
K-562 leukemia
  TGI: > 100 µM
LOX IMVI melanoma
  TGI: > 100 µM
M14 melanoma
  TGI: > 100 µM
MALME-3M melanoma
  TGI: > 100 µM
MDA-N
  TGI: > 100 µM
NCI-H23 lung
  TGI: > 100 µM
NCI-H460 lung
  TGI: > 100 µM
OVCAR-4 ovarian
  TGI: > 100 µM
OVCAR-5 ovarian
  TGI: > 100 µM
TK-10 renal
  TGI: > 100 µM
UO-31 renal
  TGI: > 100 µM

## CCOC(=O)CSc1c(C(=O)OCC)c(=O)n(-c2ccccc2)c(=S)n1-c1ccccc1
HT29 colon
  TGI: > 100 µM
K-562 leukemia
  TGI: > 100 µM
LOX IMVI melanoma
  TGI: > 100 µM
M14 melanoma
  TGI: > 100 µM
MALME-3M melanoma
  TGI: > 100 µM
MDA-N
  TGI: > 100 µM
NCI-H23 lung
  TGI: > 100 µM
NCI-H460 lung
  TGI: > 100 µM
OVCAR-4 ovarian
  TGI: > 100 µM
OVCAR-5 ovarian
  TGI: > 100 µM
TK-10 renal
  TGI: > 100 µM
UO-31 renal
  TGI: > 100 µM

## CC(C)(C)OC(=O)NCCCCC1NC(=O)[C@@H]2Cc3c([nH]c4ccccc34)C(C3CCCCC3)N2C1=O (stereo partly specified)
HT29 colon
  TGI: > 100 µM
K-562 leukemia
  TGI: > 100 µM
LOX IMVI melanoma
  TGI: > 100 µM
M14 melanoma
  TGI: > 100 µM
MALME-3M melanoma
  TGI: > 100 µM
MDA-N
  TGI: > 100 µM
NCI-H23 lung
  TGI: > 100 µM
NCI-H460 lung
  TGI: > 100 µM
OVCAR-4 ovarian
  TGI: > 100 µM
OVCAR-5 ovarian
  TGI: > 100 µM
TK-10 renal
  TGI: > 100 µM
UO-31 renal
  TGI: > 100 µM

## CN(C)C(=O)O/N=C1/C(c2c(O)[nH]c3ccccc23)=Nc2ccccc21
HT29 colon
  TGI: > 100 µM
K-562 leukemia
  TGI: > 100 µM
LOX IMVI melanoma
  TGI: > 100 µM
M14 melanoma
  TGI: > 100 µM
MALME-3M melanoma
  TGI: 30 µM
MDA-N
  TGI: > 100 µM
NCI-H23 lung
  TGI: > 100 µM
NCI-H460 lung
  TGI: > 100 µM
OVCAR-4 ovarian
  TGI: 33.1 µM
OVCAR-5 ovarian
  TGI: > 100 µM
TK-10 renal
  TGI: 57.1 µM
UO-31 renal
  TGI: > 100 µM

## O=C1CSC(c2ccc(Cl)cc2)N1c1ccc(Oc2ccc(Cl)cc2)c(Cl)c1 (stereo unspecified)
HT29 colon
  TGI: 36.3 µM
K-562 leukemia
  TGI: > 100 µM
LOX IMVI melanoma
  TGI: 30.7 µM
M14 melanoma
  TGI: 33.3 µM
MALME-3M melanoma
  TGI: 21.9 µM
MDA-N
  TGI: 30.4 µM
NCI-H23 lung
  TGI: 31.4 µM
NCI-H460 lung
  TGI: 35.5 µM
OVCAR-4 ovarian
  TGI: 28.1 µM
OVCAR-5 ovarian
  TGI: 29.6 µM
TK-10 renal
  TGI: 33.2 µM
UO-31 renal
  TGI: 21 µM
